Test results reported in patent US9113629B2, “4-amino-6-(4-substituted-phenyl)-picolinates and 6-amino-2-(4-substituted-phenyl)-pyrimidine-4-carboxylates and their use as herbicides” (DOW AGROSCIENCES LLC, priority 2013, dated 2015).

Key:
Experiment in all cases: Post-emergent Test III, herbicidal activity in wheat and barley
Format in all cases: in vivo
[1] = test system: ALOMY: black-grass (Alopecurus myosuroides); details: for pest or weed control at 35 g/ha / pest or weed control at 70 g/ha / pest or weed control at 140 g/ha: Alopecurus myosuroides, post-emergence, 504 h, read-out: Visual Growth Reduction (%) 21 Days After Application ALOMY; for pest or weed control at 35 g/ha: 35 g ai/ha; for pest or weed control at 70 g/ha: 70 g ai/ha; for pest or weed control at 140 g/ha: 140 g ai/ha; for GR50 ALOMY / GR80 ALOMY: probit analysis, 21 days after application; for GR50 ALOMY: dose for growth reduction of 50 percent; for GR80 ALOMY: dose for growth reduction of 80 percent
In short: (§1)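 GR20, GR50, GR80 and GR90 come from probit analysis of visual injury scores (0 = none, 100 = complete kill) taken 21 d after treatment. Foliar application was by track sprayer delivering 187 L/ha at five rates, from high down to 1/16×, onto greenhouse plants at the 2–3 leaf stage, with solvent-blank controls.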

[2] = test system: BROTE: downy brome (Bromus tectorum); details: for pest or weed control at 35 g/ha / pest or weed control at 70 g/ha / pest or weed control at 140 g/ha: Bromus tectorum, post-emergence, 504 h, read-out: Visual Growth Reduction (%) 21 Days After Application BROTE; for pest or weed control at 35 g/ha: 35 g ai/ha; for pest or weed control at 70 g/ha: 70 g ai/ha; for pest or weed control at 140 g/ha: 140 g ai/ha; for GR50 BROTE / GR80 BROTE: probit analysis, 21 days after application; for GR50 BROTE: dose for growth reduction of 50 percent; for GR80 BROTE: dose for growth reduction of 80 percent
In short: as §1

LAMSS = details: for pest or weed control at 35 g/ha / pest or weed control at 70 g/ha / pest or weed control at 140 g/ha: post-emergence, 504 h, read-out: Visual Growth Reduction (%) 21 Days After Application LAMSS; for pest or weed control at 35 g/ha: 35 g ai/ha; for pest or weed control at 70 g/ha: 70 g ai/ha; for pest or weed control at 140 g/ha: 140 g ai/ha; for GR50 LAMSS / GR80 LAMSS: probit analysis, 21 days after application; for GR50 LAMSS: dose for growth reduction of 50 percent; for GR80 LAMSS: dose for growth reduction of 80 percent
In short: as §1

[3] = test system: PAPRH: common poppy (Papaver rhoeas); details: for pest or weed control at 35 g/ha / pest or weed control at 70 g/ha / pest or weed control at 140 g/ha: Papaver rhoeas, post-emergence, 504 h, read-out: Visual Growth Reduction (%) 21 Days After Application PAPRH; for pest or weed control at 35 g/ha: 35 g ai/ha; for pest or weed control at 70 g/ha: 70 g ai/ha; for pest or weed control at 140 g/ha: 140 g ai/ha; for GR50 PAPRH / GR80 PAPRH: probit analysis, 21 days after application; for GR50 PAPRH: dose for growth reduction of 50 percent; for GR80 PAPRH: dose for growth reduction of 80 percent
In short: as §1

[4] = test system: VERPE: bird's-eye speedwell (veronica persica); details: for pest or weed control at 35 g/ha / pest or weed control at 70 g/ha / pest or weed control at 140 g/ha: Veronica persica, post-emergence, 504 h, read-out: Visual Growth Reduction (%) 21 Days After Application VERPE; for pest or weed control at 35 g/ha: 35 g ai/ha; for pest or weed control at 70 g/ha: 70 g ai/ha; for pest or weed control at 140 g/ha: 140 g ai/ha; for GR50 VERPE / GR80 VERPE: probit analysis, 21 days after application; for GR50 VERPE: dose for growth reduction of 50 percent; for GR80 VERPE: dose for growth reduction of 80 percent
In short: as §1

| Structure (SMILES) | pest or weed control at 35 g/ha [1] [%] | pest or weed control at 70 g/ha [1] [%] | pest or weed control at 140 g/ha [1] [%] | GR50 ALOMY [1] [g ai/ha] | GR80 ALOMY [1] [g ai/ha] | pest or weed control at 35 g/ha [2] [%] | pest or weed control at 70 g/ha [2] [%] | pest or weed control at 140 g/ha [2] [%] | GR50 BROTE [2] [g ai/ha] | GR80 BROTE [2] [g ai/ha] | pest or weed control at 35 g/ha (LAMSS) [%] | pest or weed control at 70 g/ha (LAMSS) [%] | pest or weed control at 140 g/ha (LAMSS) [%] | GR50 LAMSS (LAMSS) [g ai/ha] | GR80 LAMSS (LAMSS) [g ai/ha] | pest or weed control at 35 g/ha [3] [%] | pest or weed control at 70 g/ha [3] [%] | pest or weed control at 140 g/ha [3] [%] | GR50 PAPRH [3] [g ai/ha] | GR80 PAPRH [3] [g ai/ha] | other results |
| --- | --- | --- | --- | --- | --- | --- | --- | --- | --- | --- | --- | --- | --- | --- | --- | --- | --- | --- | --- | --- | --- |
| COC(=O)c1nc(-c2ccc(Br)cc2)c(F)c(N)c1Cl [Compound 138, Methyl 4-amino-6-(4-bromophenyl)-3-chloro-5-fluoropicolinate] | 75 to 84 | 85 to 94 | 95 to 100 | 11 | 30 | 75 to 84 | 85 to 94 | 85 to 94 | 12 | 42 | 95 to 100 | 95 to 100 | 95 to 100 | 1 | 1 | 95 to 100 | 95 to 100 | 95 to 100 | 1 | 1 | pest or weed control at 35 g/ha [4]: 60 to 74%; pest or weed control at 70 g/ha [4]: 85 to 94%; pest or weed control at 140 g/ha [4]: 85 to 94%; GR50 VERPE [4]: 15 g ai/ha; GR80 VERPE [4]: 49 g ai/ha |
| COC(=O)c1nc(-c2ccc(C#N)cc2)c(F)c(N)c1Cl [Compound 142] | 0 to 29 | 0 to 29 | 0 to 29 | >140 | >140 | 0 to 29 | 0 to 29 | 0 to 29 | >140 | >140 | 85 to 94 | 85 to 94 | 85 to 94 | 0 | 5 | 85 to 94 | 95 to 100 | 95 to 100 | 1 | 4 | pest or weed control at 35 g/ha [4]: 75 to 84%; pest or weed control at 70 g/ha [4]: 85 to 94%; pest or weed control at 140 g/ha [4]: 85 to 94%; GR50 VERPE [4]: 5 g ai/ha; GR80 VERPE [4]: 40 g ai/ha |
| Nc1c(F)c(-c2ccc(OC(F)F)cc2)nc(C(=O)O)c1Cl [Compound 143] | 0 to 29 | 60 to 74 | 60 to 74 | 71 | >140 | 0 to 29 | 45 to 59 | 45 to 59 | 95 | >140 | 85 to 94 | 85 to 94 | 85 to 94 | 1 | 1 | 85 to 94 | 85 to 94 | 85 to 94 | 1 | 8 | pest or weed control at 35 g/ha [4]: 30 to 44%; pest or weed control at 70 g/ha [4]: 45 to 59%; pest or weed control at 140 g/ha [4]: 45 to 59%; GR50 VERPE [4]: 97 g ai/ha; GR80 VERPE [4]: >140 g ai/ha |
